Patent US5770573A, “CS-1 peptidomimetics, compositions and methods of using the same” (Cytel Corporation, priority 1995, dated 1998)
Numbered stars: 1 amine (or outer) side, 2 acyl side, 3 side chain; on linkers, the order of the positions; unused ones are H or OH. Square brackets hold non-standard residues; d marks the D form. Peptide text beside a SMILES is read from it. * marks the point of attachment. Phe(4-NO2) = N[C@@H](Cc1ccc([N+](=O)[O-])cc1)C(=O)O; Acetyl(3-pyridyl) = O=C(Cc1cccnc1)*; Pyrazinecarbonyl = O=C(c1cnccn1)*; Quinaldoyl = O=C(c1ccc2ccccc2n1)*; Cya = N[C@@H](CS(=O)(=O)O)C(=O)O; Brosyl = O=S(=O)(c1ccc(Br)cc1)*; Cha = N[C@@H](CC1CCCCC1)C(=O)O; NMeD = CN[C@@H](CC(=O)O)C(=O)O; X19 = O=C(Cc1ccc(Br)cc1)*; Morpholide = C1CN(*)CCO1; Piperidide = C1CCN(*)CC1; NHDecyl = CCCCCCCCCCN*; PhAc = O=C(Cc1ccccc1)*; X18 = O=C(c1cn[nH]c1)*; CO = O=C([*:1])[*:2]; Bz = O=C(c1ccccc1)*; NHPh = c1ccc(N*)cc1; X5 = CCCCCCCCCCCCO*; NHBu = CCCCN*

The compounds below were run against VLA-4 (Homo sapiens, UniProt P05556+P13612) (assay: In vitro binding inhibition of 51Cr-labeled Jurkat cells to solid phase-bound CS-1 compound (SEQ ID NO:1)). Settings: not given.
Chain of VLA-4 (P13612 34-1032): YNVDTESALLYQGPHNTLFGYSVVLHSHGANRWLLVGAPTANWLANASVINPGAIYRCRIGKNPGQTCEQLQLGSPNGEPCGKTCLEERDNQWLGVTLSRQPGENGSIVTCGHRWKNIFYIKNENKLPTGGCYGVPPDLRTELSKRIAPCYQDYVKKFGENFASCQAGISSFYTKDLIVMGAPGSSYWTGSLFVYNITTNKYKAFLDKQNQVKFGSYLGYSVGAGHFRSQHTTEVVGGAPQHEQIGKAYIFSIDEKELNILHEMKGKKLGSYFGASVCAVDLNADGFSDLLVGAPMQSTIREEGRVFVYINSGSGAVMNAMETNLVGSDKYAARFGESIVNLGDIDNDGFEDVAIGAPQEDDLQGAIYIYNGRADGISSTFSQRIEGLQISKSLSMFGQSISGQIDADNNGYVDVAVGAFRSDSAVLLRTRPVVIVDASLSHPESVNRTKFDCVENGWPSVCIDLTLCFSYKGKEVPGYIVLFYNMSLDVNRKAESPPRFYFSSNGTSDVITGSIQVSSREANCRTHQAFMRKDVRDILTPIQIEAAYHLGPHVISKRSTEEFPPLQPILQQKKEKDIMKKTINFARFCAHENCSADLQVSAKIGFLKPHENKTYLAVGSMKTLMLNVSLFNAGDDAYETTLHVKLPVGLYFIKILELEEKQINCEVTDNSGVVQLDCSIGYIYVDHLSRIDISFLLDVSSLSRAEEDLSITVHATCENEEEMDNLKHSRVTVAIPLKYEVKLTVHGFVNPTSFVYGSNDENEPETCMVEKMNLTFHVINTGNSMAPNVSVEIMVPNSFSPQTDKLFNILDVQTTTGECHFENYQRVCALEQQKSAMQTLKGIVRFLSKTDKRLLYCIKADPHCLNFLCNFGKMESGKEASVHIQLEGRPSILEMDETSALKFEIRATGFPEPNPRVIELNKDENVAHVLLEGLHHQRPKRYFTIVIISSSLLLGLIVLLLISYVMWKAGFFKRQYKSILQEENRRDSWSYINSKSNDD
Chain of VLA-4 (P05556 21-798): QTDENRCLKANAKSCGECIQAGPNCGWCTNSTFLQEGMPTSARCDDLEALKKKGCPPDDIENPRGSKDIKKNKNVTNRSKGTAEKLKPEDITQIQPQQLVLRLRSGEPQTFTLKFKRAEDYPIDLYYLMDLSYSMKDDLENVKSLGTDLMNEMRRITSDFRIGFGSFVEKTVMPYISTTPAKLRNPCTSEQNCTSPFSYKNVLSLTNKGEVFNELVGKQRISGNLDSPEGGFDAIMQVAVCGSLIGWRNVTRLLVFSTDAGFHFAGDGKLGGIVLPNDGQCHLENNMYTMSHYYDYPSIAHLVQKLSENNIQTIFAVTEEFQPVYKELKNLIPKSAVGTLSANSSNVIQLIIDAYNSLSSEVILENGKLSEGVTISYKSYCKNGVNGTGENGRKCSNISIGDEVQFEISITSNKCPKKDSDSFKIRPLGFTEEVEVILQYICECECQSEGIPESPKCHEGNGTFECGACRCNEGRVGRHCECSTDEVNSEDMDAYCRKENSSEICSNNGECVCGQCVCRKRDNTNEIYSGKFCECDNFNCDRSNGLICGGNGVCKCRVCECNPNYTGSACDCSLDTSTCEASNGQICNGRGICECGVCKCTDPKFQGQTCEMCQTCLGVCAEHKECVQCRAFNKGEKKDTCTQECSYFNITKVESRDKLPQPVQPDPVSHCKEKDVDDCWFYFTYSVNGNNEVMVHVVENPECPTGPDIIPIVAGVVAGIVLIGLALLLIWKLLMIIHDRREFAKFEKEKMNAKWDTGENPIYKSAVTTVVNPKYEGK
Type: cell-based
Set-up: inflammatory cells that contain the VLA-4 receptor [Jurkat cells; host or cells: Jurkat (human T lymphoblastic line)
How it was run: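 51Cr-labeled human Jurkat cells were preincubated with compound 30 min at about 22° C, then allowed to bind to wells coated with CS-1 peptide or CS-1-OVA for 30 min at 37° C. After washing, bound cells were lysed with SDS and counted. IC50 is the concentration halving binding, normalized to SEQ ID NO: 3.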

| SMILES | Relative Potency |
| --- | --- |
| CC(C)C[C@H](NC(=O)C1CCCCC1)C(=O)N[C@@H](CC(=O)O)C(=O)N[C@H](C(=O)N1CCC[C@@H]1C(N)=O)C(C)C [896.49] | 9.08 |
| CC(C)C[C@H](NC(=O)Cc1cccnc1)C(=O)N[C@@H](CC(=O)O)C(=O)N[C@@H](Cc1ccccc1)C(=O)N1CCC[C@@H]1C(N)=O [951.22] ({Acetyl(3-pyridyl)}-LDF[dP]-NH2) | 387 |
| CC(C)C[C@H](NC(=O)Cc1ccc(O)c(O)c1)C(=O)N[C@@H](CC(=O)O)C(=O)N[C@@H](Cc1ccccc1)C(=O)N1CCCCC1 [1019.01] | 81.4 |
| CC(C)C[C@@H](C(=O)N[C@@H](CC(=O)O)C(=O)N[C@@H](Cc1ccccc1)C(=O)N1CCCCC1)N1C(=O)N[C@@H](c2ccccc2)C1=O [1047.02] | 3.13 |
| CC(C)[C@H](NC(=O)[C@H](CC(=O)O)NC(=O)[C@H](CC1CCCCC1)NC(=O)[C@@H](N)Cc1ccccc1)C(=O)N1CCC[C@@H]1C(N)=O [896.33] (H-F[Cha]DV[dP]-NH2) | 2.61 |
| CC(C)COC(=O)N[C@@H](CC(=O)O)C(=O)N[C@@H](Cc1ccccc1)C(=O)N1CCCCC1 [1027.04] | 0 |
| CC(C)C[C@H](NC(=O)c1cnccn1)C(=O)N[C@@H](CC(=O)O)C(=O)N[C@@H](Cc1ccccc1)C(=O)N1CCC[C@@H]1C(N)=O [951.02] (Pyrazinecarbonyl-LDF[dP]-NH2) | 19.4 |
| CC(C)C[C@H](NS(=O)(=O)c1ccc(Br)cc1)C(=O)N[C@@H](CC(=O)O)C(=O)N[C@@H](Cc1ccccc1)C(=O)N1CCC[C@@H]1C(N)=O [951.10] (Brosyl-LDF[dP]-NH2) | .63 |
| Cc1cccc(C)c1C(=O)N[C@@H](CC(C)C)C(=O)N[C@@H](CC(=O)O)C(=O)N[C@H](C(=O)N1CCC[C@@H]1C(N)=O)C(C)C [896.36] | 3.13 |
| CC[C@@H](C)[C@@H](N)C(=O)N[C@@H](CC(C)C)C(=O)N[C@@H](CC(=O)O)C(=O)N[C@H](C(=O)N1CCC[C@@H]1C(N)=O)C(C)C [926.03] | 1.83 |
| CC[C@H](C)[C@H](N)C(=O)N[C@@H](CC(C)C)C(=O)N[C@@H](CC(=O)O)C(=O)N[C@@H](CC1CCCCC1)C(=O)N1CCC[C@H]1C(N)=O [926.14] (H-ILD[Cha]P-NH2) | .13 |
| CC(C)CN1C(=O)C(NC(=O)N[C@@H](CC(=O)O)C(=O)N[C@@H](Cc2ccccc2)C(=O)N2CCC[C@@H]2C(N)=O)Cc2ccccc21 (stereo partly drawn) [1014.01] | 1.22 |
| CC(C)C[C@@H](C(=O)N1C(=O)N([C@@H](Cc2ccccc2)C(=O)N2CCCCC2)C(=O)[C@@H]1CC(=O)O)N1C(=O)c2ccccc2C1=O [1047.03] | 0 |
| CC[C@H](C)[C@H](N)C(=O)N[C@@H](CC(C)C)C(=O)N[C@@H](CC(=O)O)C(=O)N[C@H](C(=O)N1CCC[C@H]1C(N)=O)[C@@H](C)CC [926.17] (H-ILDIP-NH2) | .21 |
| CC(C)C[C@H](NC(=O)Cc1ccc(Br)cc1)C(=O)N[C@@H](CC(=O)O)C(=O)N[C@@H](Cc1ccccc1)C(=O)N1CCC[C@@H]1C(N)=O [951.08] (X19-LDF[dP]-NH2) | 6.26 |
| CC(C)C[C@H](NC(=O)c1cn[nH]c1)C(=O)N[C@@H](CC(=O)O)C(=O)N[C@@H](Cc1ccccc1)C(=O)N1CCC[C@@H]1C(N)=O [951.03] (X18-LDF[dP]-NH2) | 28.2 |
| CC(C)C[C@H](NC(=O)c1ccc2ccccc2c1)C(=O)N[C@@H](CC(=O)O)C(=O)N[C@H](C(=O)N1CCC[C@@H]1C(N)=O)C(C)C [896.44] | 2.5 |
| NC(=O)[C@H]1CCCN1C(=O)[C@H](Cc1ccccc1)NC(=O)[C@H](CC(=O)O)NC(=O)CCCCC[N+](=O)[O-] [1056.11] | 0 |
| CC(=O)N[C@@H](CC(C)C)C(=O)N[C@@H](CC(=O)O)C(=O)N[C@@H](Cc1ccccc1)C(N)=O [926.32] (Ac-Leu-Asp-Phe-NH2) | .47 |
| CC(C)CN(CC(C)C)C(=O)N[C@@H](CC(=O)O)C(=O)N[C@H](C(=O)N1CCCCC1)c1ccccc1 [1027.01] | .5 |
| CC(C)C[C@H](NC(=O)c1ccc2ccccc2n1)C(=O)N[C@@H](CC(=O)O)C(=O)N[C@@H](Cc1ccccc1)C(=O)N1CCC[C@@H]1C(N)=O [951.06] (Quinaldoyl-LDF[dP]-NH2) | 8.97 |
| CC[C@H](C)[C@H](N)C(=O)N[C@@H](Cc1ccccc1)C(=O)N[C@@H](CC(=O)O)C(=O)N[C@H](C(=O)N1CCC[C@H]1C(N)=O)C(C)C [926.07] (H-IFDVP-NH2) | .08 |
| CC(C)C[C@H](NC(=O)Nc1ccccc1)C(=O)N[C@@H](CC(=O)O)C(=O)N[C@@H](Cc1ccccc1)C(=O)N1CCC[C@@H]1C(N)=O [896.62] ({NHPh-CO}-LDF[dP]-NH2) | 257 |
| CC(C)CC(C(=O)NCc1ccccc1)C(=O)N[C@@H](CC(=O)O)C(=O)N[C@@H](Cc1ccccc1)C(=O)N1CCCCC1 (stereo partly drawn) [1034.02] | 0 |

Same assay, conditions: binding inhibition potency relative to standard compound of SEQ ID NO:3 = 1 (normalized IC50); about one-tenth or less assigned zero

| SMILES | Relative Potency |
| --- | --- |
| CC(C)C[C@H](NC(=O)Cc1ccccc1)C(=O)N[C@@H](CC(=O)O)C(=O)N[C@@H](Cc1ccccc1)C(=O)N1CCCCC1 [951.14] (PhAc-Leu-Asp-Phe-Piperidide) | 239 |
| CC(C)[C@H](NC(=O)[C@H](CC(=O)O)NC(=O)[C@H](CC1CCCCC1)NC(=O)c1ccccc1)C(=O)N1CCC[C@@H]1C(N)=O [896.34] (Bz-[Cha]DV[dP]-NH2) | 6.73 |
| CC(C)C[C@H](NC(=O)Cc1ccccc1)C(=O)N(C)[C@@H](CC(=O)O)C(=O)N[C@@H](Cc1ccccc1)C(=O)N1CCC[C@@H]1C(N)=O [1190.06] (PhAc-L[NMeD]F[dP]-NH2) | 0 |
| CC(C)C[C@H](NC(=O)Cc1ccccc1)C(=O)N[C@@H](CC(=O)O)C(=O)N[C@@H]1CCCCNC1=O [1043.01] | 17.2 |
| CC(C)C[C@H](NC(=O)Cc1ccccc1)C(=O)N[C@@H](CC(=O)O)C(=O)N[C@@H](Cc1ccccc1)C(=O)N1CCSCC1 [1111.02] | 450 |
| CC(C)C[C@H](NC(=O)Cc1ccccc1)C(=O)N[C@@H](CS(=O)(=O)O)C(=O)N[C@@H](Cc1ccccc1)C(=O)N1CCCCC1 [1026.06] (PhAc-Leu-[Cya]-Phe-Piperidide) | 0 |
| CC(C)C[C@H](NC(=O)Cc1ccccc1)C(=O)N[C@@H](CC(=O)O)C(=O)NC1CCCCN(CC(N)=O)C1=O (stereo partly drawn) [1057.06] | 97 |
| CC(C)C[C@H](NC(=O)Cc1ccccc1)C(=O)N[C@@H](CC(=O)O)C(=O)N1CCc2ccccc2C1 [997.09] | 3.13 |
| CC(C)C[C@H](NC(=O)Cc1ccccc1)C(=O)N[C@@H](CC(=O)O)C(=O)NCCN1CCOCC1 [997.03] | 12.5 |
| CCCCNC(=O)[C@H](Cc1ccccc1)NC(=O)[C@H](CC(=O)O)NC(=O)[C@H](CC(C)C)NC(=O)Cc1ccccc1 [1051.03] (PhAc-Leu-Asp-Phe-NHBu) | 2.82 |
| CC(C)C[C@H](NC(=O)Cc1ccccc1)C(=O)N[C@@H](CC(=O)O)C(=O)NNC(=O)OC(C)(C)C [997.13] | 1.57 |
| CC(C)C[C@H](NC(=O)Cc1ccccc1)C(=O)N[C@@H](CC(=O)O)C(=O)NN1Cc2ccccc2NC1=O [997.17] | 1.35 |
| CC(C)C[C@H](NC(=O)Cc1ccccc1)C(=O)N[C@@H](CC(=O)O)C(=O)N[C@H]1CCN(C2CCCCC2)C1=O [1057.02] | 6.57 |
| CC(C)C[C@H](NC(=O)Cc1ccccc1)C(=O)N[C@@H](CP(=O)(O)O)C(=O)N[C@@H](Cc1ccccc1)C(=O)N1CCCCC1 [1026.07] | 0 |
| CC(C)C[C@H](NC(=O)Cc1ccccc1)C(=O)N[C@@H](CC(=O)O)C(=O)N[C@H](C(=O)N1CCC[C@@H]1C(N)=O)C(C)C [896.39] | 47.5 |
| CC(C)CN(CC(=O)Nc1ccccc1)C(=O)CN(CC(=O)O)C(=O)CN(Cc1ccccc1)C(=O)C1CCCC1 [1032.02] | .63 |
| CC(C)C[C@H](NC(=O)Cc1ccccc1)C(=O)N[C@@H](CC(=O)O)C(=O)N[C@@H](Cc1ccccc1)C(=O)NCC(=O)N1CCOCC1 [1051.04] (PhAc-LDFG-Morpholide) | 3.13 |
| CC(C)C[C@H](NC(=O)Cc1ccccc1)C(=O)N[C@@H](CC(=O)O)C(=O)NCC(=O)N1CCOCC1 [997.16] (PhAc-Leu-Asp-Gly-Morpholide) | 9.23 |
| CC(C)C[C@H](NC(=O)Cc1ccccc1)C(=O)N[C@@H](CC(=O)O)C(=O)N[C@@H](Cc1ccc([N+](=O)[O-])cc1)C(=O)N1CCC[C@@H]1C(N)=O [896.68] (PhAc-LD[Phe(4-NO2)][dP]-NH2) | 39.9 |
| CC(C)C[C@H](NC(=O)Cc1ccccc1)C(=O)N[C@@H](CC(=O)O)C(=O)N[C@@H](Cc1ccccc1)C(=O)N1CCN(CCOCCO)CC1 [1111.07] | 510 |
| CC(C)C[C@H](NC(=O)Cc1ccccc1)C(=O)N[C@@H](CC(=O)O)C(=O)N[C@@H](CO)C(=O)N1CCC[C@@H]1C(N)=O [1042.23] (PhAc-LDS[dP]-NH2) | 33.2 |

Same assay, conditions: compared with standard 10-mer of SEQ ID NO:3

| SMILES | VLA-4 binding inhibition compared in words |
| --- | --- |
| CC(C)C[C@H](NC(=O)[C@@H](N)Cc1ccccc1)C(=O)N[C@@H](CC(=O)O)C(=O)N[C@@H](Cc1ccccc1)C(=O)N1CCC[C@@H]1C(N)=O [Compound ID No. 1092.01] (H-FLDF[dP]-NH2) | binding inhibition better than that of the compound of SEQ ID NO:3 |

Same assay, conditions: relative to SEQ ID NO:3 = 1; potency before the prodrug compound is enzymatically converted to an active form

| SMILES | Relative Potency (prodrug compound) |
| --- | --- |
| CCCCCCCCCCCCOC(=O)C[C@H](NC(=O)[C@H](CC(C)C)NC(=O)Cc1ccccc1)C(=O)N[C@@H](Cc1ccccc1)C(=O)N1CCC[C@@H]1C(N)=O [1068.10] (PhAc-LD(X5)F[dP]-NH2) | 0 |
| CCCCCCCCCCNC(=O)[C@@H]1CCCN1C(=O)[C@H](Cc1ccccc1)NC(=O)[C@H](CC(=O)O)NC(=O)[C@H](CC(C)C)NC(=O)Cc1ccccc1 [1068.04] (PhAc-LDFP-NHDecyl) | 2.13 |
